Source: article PMC8158122, “Development of Pelubiprofen Tromethamine with Improved Gastrointestinal Safety and Absorption” (Pharmaceutics, 2021)
Values after ≈ are worked out from the molar mass of the structure shown. Where two headings read alike, the source gives them in different places.

Assays:
[1] = Solubility at various pH values; assay type: physicochemical; conditions: thermodynamic from solid, stirred 24 h, mean ± S.D. (n = 3)
Protocol: (§1) PEL and butylparaben (IS) were prepared and further diluted in a mixture of methanol and deionized water at a ratio of 4:1 (v/v) to provide a working PEL and IS solution of concentration 30 µg/mL. The PEL concentration was determined using an HPLC system (Model 1260; Agilent Technologies Inc., Santa Clara, CA, USA). Chromatographic separation was performed using a C18 column (4.6 × 150 mm, 5 µm, Waters, Milford, MA, USA) at a flow rate of 1.1 mL/min with the mobile phase consisting of methanol, water, and acetic acid at a ratio of 1200:800:1 (v/v). The sample was injected into the column, and the peaks were monitored using a UV detector at 274 nm.
The solubilities of PEL-T and PEL were compared and evaluated based on the pH changes. After dissolving 5 g of PEL-T and PEL each in 5 mL of water, a pH 1.2 solution, a pH 4.0 solution, and a pH 6.8 solution, respectively, the mixtures were stirred for 24 h, filtered using a 0.45 μm polyvinylidene difluoride (PVDF) syringe filter, and then were analyzed using an HPLC assay, as described above (Section 2.4).

[2] = Stress stability test (high temperature or high humidity); assay type: physicochemical
Protocol: as §1
Stability tests of PEL-T and PEL were performed under stress storage conditions. PEL-T and PEL were packed into high-density polyethylene (HDPE) bottles with caps and used as stability test samples. For stress stability, the samples were stored at a high temperature (80 ± 5 °C) or high humidity (relative humidity (RH) 90 ± 5%). The drug content and impurities were determined using the HPLC assay described above (Section 2.4) at the following time points: 0, 14, and 21 days (Tables S3 and S4).

[3] = Permeability test in Caco-2 cell monolayers; assay type: in vitro ADME; conditions: human, Caco-2; Kp [B to A]/Kp [A to B]
Protocol: (§2) Caco-2 monolayer experiments were performed as previously described with a few modifications [20]. The Caco-2 cells were obtained from the Korean Cell Line Bank (Seoul, Korea) and used in the transport experiments between passages 40 and 50. The cells were cultured at 37 °C with 5% CO2 and maintained in Dulbecco’s modified Eagle’s medium with 10% fetal bovine serum, 1% nonessential amino acids, 10,000 units/mL penicillin, and 10,000 μg/mL streptomycin. For the transport studies, cells were seeded on rat tail collagen-coated Transwell insert filters on 12-well plates at 3 × 10^5 cells/500 μL and were cultured for 21–29 days. For the first 7 days, the medium was replaced every 2–3 days, and daily thereafter. Monolayer integrity was checked before and after each experiment using a Millicell-ERS instrument to determine the transepithelial electrical resistance (TEER) across the monolayer and to ensure that there were no substantial changes in the monolayer integrity throughout the duration of the experiments.
(§3) Prior to transport experiments, the cell monolayers were washed twice using Hank’s balanced salt solution (HBSS), and the Caco-2 cell Transwell model was preincubated at 37 °C for 15 min. […] The sample was pretreated using a protein precipitation method and the concentrations of PEL in each sample were determined using an LC–MS/MS assay, as described below (Section 2.9). […] The sample was pretreated using a protein precipitation method and the concentration of PEL in each sample was determined using an LC–MS/MS assay. The steady state flux (Js) and permeability coefficient (Kp) were calculated according to Equations (1) and (2):Js [ng/(cm^2 × h)] = Qr/(A × t)(1) Kp (cm/h) = Js/Cd(2) where Qr is the total permeation amount of PEL in the basolateral (for the absorptive transport) or apical (for the secretory transport) side (ng), A is the surface area of the insert (1.12 cm^2), t is the permeation time (h), and Cd is the initial drug concentration in the apical (for the absorptive transport) or basolateral (for the secretory transport) side (ng/cm^3). […]

[4] = system: Caco-2 cells; experiment: Permeability test in Caco-2 cell monolayers; assay type: in vitro ADME
Protocol: as §2, §3

[5] = system: gastric mucosa; experiment: Gastric mucosal injury test in rats; assay type: in vivo, Sprague-Dawley (SD) rats; conditions: single p.o. dose equivalent to PEL 300 mg/kg, 6 h after dosing, 48 h fasted male SD rats, n = 10
Protocol: The gastric mucosal injury test was performed by KNOTUS Co., Ltd. (Guri, Korea) and approved by the Animal Ethics Committee (Protocol number: […]-354 approved 18 October 2018). Male Sprague-Dawley (SD) rats (7-weeks-old) from Orient bio Co., Ltd. […] The rats were randomly divided into three groups, each group consisting of 10 animals. […] The area of the lesions was analyzed using ImageJ software (National Institutes of Health, Bethesda, MD, USA).

[6] = PK study in rats after oral administration; assay type: in vivo, Sprague-Dawley (SD) rats; conditions: male, Sprague-Dawley, rat, PEL in plasma, single oral dose 9.3 mg/kg PEL equivalent, n = 10
Protocol: Male Sprague-Dawley (SD) rats (8-weeks-old) from DBL Co., Ltd. (Eumseong, Korea) were maintained under constant laboratory conditions (temperature: 22 ± 3 °C, RH: 50 ± 20%, light/dark cycle: 12 h). The rats were divided into two groups, each composed of 10 rats. The animals were fasted overnight and were only allowed free access to water. […] Blood samples (500 μL) were collected directly from the jugular vein at predetermined time points (0, 0.083, 0.167, 0.25, 0.5, 0.75, 1, 2, 3, 4, and 8 h) using heparinized syringes. The collected blood samples were centrifuged immediately at 12,000 rpm for 5 min at 4 °C and the obtained plasma samples were stored at −70 °C until analysis.
The plasma concentration of PEL was determined using LC–MS/MS (Agilent 1260; Agilent Technologies Inc., Santa Clara, CA, USA). The chromatographic separation of PEL was performed using an ODS column (Poroshell 120 EC-C18, 2.1 × 30 mm, 2.7 µm, Agilent Technologies Inc., Santa Clara, CA, USA). The mobile phase (MP) consisted of 0.1% formic acid and acetonitrile with a gradient elution and the flow rate used was 0.4 mL/min. Mass spectrometric detection was done using an AB Sciex API 4000 triple quadrupole mass spectrometer (AB Sciex Instruments, Framingham, MA, USA). The electrospray ionization (ESI) source was set to positive ion mode. The mass-to-charge ratios (m/z) used were 259.0 → 195.2 for PEL and 255.1 → 208.9 for ketoprofen, which were used as the internal standards (IS). […] The assay method was validated for linearity, accuracy, and precision.
The PK parameters for PEL were calculated using the noncompartmental analysis and WinNonlin® 8.1 (Pharsight, CA, USA). The area under the plasma concentration–time curve from 0 h to the last time point (AUCt) was calculated for all samples using the linear trapezoidal method. The maximum plasma concentration and time to reach the maximum plasma concentration (Tmax) were directly obtained from the plasma concentration–time profiles.

[7] = parameters: method as in PMID 27492018, doi:10.2133/dmpk.10.637; conditions: oral administration, rats; cited from earlier work
[8] = parameters: method as in PMID 27492018, doi:10.2133/dmpk.10.637; conditions: oral administration, cited from earlier work

solubility at 24 h ([1]; aqueous buffer, pH 4.0 solution): 70 ± 40 µg/mL (≈ 271 µM) | solubility at 24 h ([1]; aqueous buffer, pH 6.8 solution): 4050 ± 140 µg/mL (≈ 15700 µM) | solubility at 24 h ([1]; simulated gastric fluid, pH 1.2 solution): 30 ± 10 µg/mL (≈ 116 µM) | solubility at 24 h ([1]; water): 130 ± 30 µg/mL (≈ 503 µM) | Changes in the drug contents in the stress stability test ([2]; 80 ± 5 °C or RH 90 ± 5%, entire period (21 days)): No significant changes | Contents ([2]; 80 ± 5 °C, 0 days): 98.6 ± 0.8% | Contents ([2]; 80 ± 5 °C, 14 days): 98.2 ± 0.6% | Contents ([2]; 80 ± 5 °C, 21 days): 97.1 ± 0.9% | Contents ([2]; RH 90 ± 5%, 0 days): 98.6 ± 0.8% | Contents ([2]; RH 90 ± 5%, 14 days): 98.9 ± 0.4% | Contents ([2]; RH 90 ± 5%, 21 days): 98.5 ± 0.4% | efflux ratio at 120 min, 50 μM [3]: 1.24 | Efflux ratio, times higher than that of PEL-T [4]: 1.6 times | Kp B to A, times higher than that of PEL-T ([4]; secretory direction, not statistically significant): 1.3 times | AUC(0-t) [6]: 19.2 ± 7.01 ng·h/mL | Cmax [6]: 46.3 ± 29.2 ng/mL | Tmax ([6]; plasma, po, 9.3 mg/kg): 23.4 ± 11.4 min
Structure (SMILES): CC(C(=O)O)c1ccc(C=C2CCCCC2=O)cc1 (stereo not drawn) [PEL, 2-[4-(2-oxocyclohexylidenemethyl)phenyl] propionic acid]
Damage area (mucosal hemorrhagic lesions) [5]: 4.01% | Time to reach the maximum plasma concentration (Cmax) [7]: 30 min | Time to reach the maximum plasma concentration (Cmax) ([8]; female beagle dogs): 2 h | Time to reach the maximum plasma concentration (Cmax) ([8]; male beagle dogs): 1 h
